This assay concerns the target T1, α1,4 Gal-T (Homo sapiens, UniProt Q9NPC4).
T1 sequence (Q9NPC4 1-353): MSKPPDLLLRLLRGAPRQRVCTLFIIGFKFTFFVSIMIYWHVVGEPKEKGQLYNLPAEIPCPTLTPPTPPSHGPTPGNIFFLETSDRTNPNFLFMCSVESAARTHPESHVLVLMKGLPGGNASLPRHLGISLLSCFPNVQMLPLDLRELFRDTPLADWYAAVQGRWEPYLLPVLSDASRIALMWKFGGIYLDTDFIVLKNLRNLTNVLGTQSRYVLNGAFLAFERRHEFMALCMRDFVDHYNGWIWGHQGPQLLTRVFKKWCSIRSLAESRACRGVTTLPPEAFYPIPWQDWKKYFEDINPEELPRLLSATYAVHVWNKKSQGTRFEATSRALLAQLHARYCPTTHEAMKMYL
The assay can be described thus: Enzyme assay of α1,4 Gal-T in membrane fraction of transfected L cells. Particulars: for Km: acceptor substrate of α1,4 Gal-T, donor UDP-Gal; for significant levels of [14C] galactose incorporation (acceptor): potential acceptors, FIG. 4B.

This is an account of results in patent US6783966B1 (priority 2000, dated 2004).

Description: The enzyme activity of α1,4 Gal-T in the membrane fraction was measured as descibed previously(ref.4). The reaction mixture for the assay contained the following in a volume of 50 μl:50 mM sodium cacodylate-HCl (pH 6.0), 10 mM MgCl2, 5 mM galactonolactone (Sigma), 0.3% Triton X-100 (Sigma), 0.4 mM (LacCer), 2.9 mM phosphatidylglycerol (Sigma), 0.2 mM UDP-Gal (Sigma), UDP-[^14C] Gal (2.5×10^5 dpm) (NEN), and membrane fraction containing 50 μg protein. The protein concentration was determined by Lowry's methods(ref.20). The products was isolated by a C18 Sep-Pak cartridge (Waters, Milford, Mass.) and analyzed by thin layer chromatography (TLC) and autoradiography using a Bio-Imaging Analyzer BAS2000 (Fuji Film, Tokyo).
Enzyme activity toward other potential acceptors was also examined (FIG. 4B).

For galactosylceramide, the Michaelis-Menten constant (Km) is 132 µM and the “significant levels of [14C] galactose incorporation (acceptor)” value is given as “significant levels”.
The like results for lactosylceramide [LacCer] were, in that order, 54.5 µM and “significant levels”.
